{
  "source": "patent US20250221966A1",
  "about": "“RXFP1 AGONISTS” (BRISTOL-MYERS SQUIBB COMPANY, priority 2021, published 2025)",
  "data": [
    {"system": "not given", "assay": "not given", "conditions": "intravenous (IV) formulation; cited from earlier work", "units": {"first-phase pharmacokinetic half-life": "min"}, "values": [
      {"molecule": "Serelaxin", "first-phase pharmacokinetic half-life": 5.4}
    ]},
    {"molecular_target": "T1, human RXFP1 (Homo sapiens, UniProt Q9HBX9)", "T1 construct": "expressed in transfected cells", "T1 sequence (Q9HBX9 1-757)": "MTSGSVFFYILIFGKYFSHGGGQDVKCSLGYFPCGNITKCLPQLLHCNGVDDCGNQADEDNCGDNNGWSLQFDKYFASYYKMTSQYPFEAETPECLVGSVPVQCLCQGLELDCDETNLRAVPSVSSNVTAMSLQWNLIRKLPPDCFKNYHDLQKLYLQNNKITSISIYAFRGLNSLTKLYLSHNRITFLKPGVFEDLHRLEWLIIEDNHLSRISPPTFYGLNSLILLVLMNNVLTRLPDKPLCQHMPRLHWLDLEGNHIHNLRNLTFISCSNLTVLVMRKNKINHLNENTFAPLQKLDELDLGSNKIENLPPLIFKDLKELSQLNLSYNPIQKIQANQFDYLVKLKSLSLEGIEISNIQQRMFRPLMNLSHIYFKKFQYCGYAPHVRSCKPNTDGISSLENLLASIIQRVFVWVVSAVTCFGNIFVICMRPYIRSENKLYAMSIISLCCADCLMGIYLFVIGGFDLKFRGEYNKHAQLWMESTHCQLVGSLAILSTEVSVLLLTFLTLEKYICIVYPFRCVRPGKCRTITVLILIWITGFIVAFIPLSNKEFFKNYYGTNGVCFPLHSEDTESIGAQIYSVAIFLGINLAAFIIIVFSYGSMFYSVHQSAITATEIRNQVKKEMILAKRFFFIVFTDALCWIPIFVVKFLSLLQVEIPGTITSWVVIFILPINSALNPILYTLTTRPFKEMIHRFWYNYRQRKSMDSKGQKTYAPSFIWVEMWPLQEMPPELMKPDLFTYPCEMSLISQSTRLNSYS", "assay": "RXFP1 cAMP assay (hRXFP1 HEK293 cAMP assay, HTRF)", "type": "cell-based", "conditions": "HEK293 cells stably expressing human RXFP1, 30 min at room temperature, read-out: cAMP hRXFP1 HEK293 Assay EC50", "how_it_was_run": "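In a stable human RXFP1 HEK293 line, compounds acted for 30 min at RT in buffer with 0.5 mM IBMX. HTRF then quantified cellular cAMP.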", "units": {"EC50": "nM"}, "values": [
      {"molecule": "COc1ccc(N2CC(=O)NC2=O)cc1C(=O)N[C@H]1[C@@H](C(=O)Nc2ccc(F)c(C(F)(F)F)c2)[C@H]2CC[C@@H]1/C2=C\\C1CC1", "note": "[compound 697]", "EC50": 972},
      {"molecule": "COc1cc(F)c(F)cc1C(=O)N[C@@H]1C2CCC(/C2=C/c2ccsc2)[C@@H]1C(=O)Nc1ccc(F)c(C(F)(F)F)c1", "note": "(stereo partly shown) [compound 36]", "EC50": 19},
      {"molecule": "COc1ccc(C2=NOC3CC(C(N)=O)CC23)cc1C(=O)N[C@H]1[C@@H](C(=O)Nc2ccc(F)c(C(F)(F)F)c2)[C@H]2CC[C@@H]1/C2=C\\C1CC1", "note": "(single isomer, unassigned) [compound 587]", "EC50": 80.8},
      {"molecule": "COCCNC(=O)c1ccc(-c2ccc(OC)c(C(=O)N[C@@H]3C4CCC(/C4=C/c4ccccc4)[C@@H]3C(=O)Nc3ccc(F)c(C(F)(F)F)c3)c2)c(F)c1", "note": "(stereo partly shown) [compound 197]", "EC50": 51},
      {"molecule": "COc1ccc(C2CCCN(C(=O)C(=O)O)C2)cc1C(=O)NC1C2CCC(/C2=C/C(F)(F)F)C1C(=O)Nc1ccc(F)c(C(F)(F)F)c1", "note": "(stereo not shown) [compound 368]", "EC50": 639},
      {"molecule": "COc1ccc(-c2cc(C(OC(=O)NC(C)(C)C)C(=O)O)ccc2F)cc1C(=O)N[C@H]1[C@@H](C(=O)Nc2ccc(F)c(C(F)(F)F)c2)[C@H]2CC[C@@H]1/C2=C\\C1CC(F)(F)C1", "note": "(stereo partly shown) [compound 935]", "EC50": 2.5},
      {"molecule": "COc1ccc(-c2cc([C@H](OC(=O)NC3CCC3)C(F)(F)F)ccc2F)cc1C(=O)N[C@@H]1C2CCC(/C2=C/CC(C)C)[C@@H]1C(=O)Nc1ccc(F)c(C(F)(F)F)c1", "note": "(stereo partly shown) [compound 926]", "EC50": 2.8},
      {"molecule": "CC/C=C1\\C2CCC1[C@H](C(=O)Nc1ccc(F)c(C(F)(F)F)c1)[C@@H]2NC(=O)c1cc(-c2cc(C(=O)NC)ccc2F)ccc1OC", "note": "(stereo partly shown) [compound 156]", "EC50": 11},
      {"molecule": "COc1ccc(-c2cc(C3=NOC(CO)C3)ccc2F)cc1C(=O)N[C@H]1[C@@H](C(=O)Nc2ccc(F)c(C(F)(F)F)c2)[C@H]2CC[C@@H]1/C2=C\\C1CC1", "note": "(stereo partly shown) [compound 905]", "EC50": 7},
      {"molecule": "COc1c(F)cc(C2=NOC3CC(CO)CC23)cc1C(=O)N[C@H]1[C@@H](C(=O)N[C@H](C)C2(C)CC2)[C@H]2CC[C@@H]1/C2=C\\CC(O)C(F)(F)F", "note": "(stereo partly shown) [compound 821]", "EC50": 2.5},
      {"molecule": "COc1ccc(C2CC3CN(CCCO)C(=O)C32)cc1C(=O)N[C@H]1[C@@H](C(=O)Nc2ccc(F)c(C(F)(F)F)c2)[C@H]2CC[C@@H]1/C2=C\\C1CC1", "note": "(single isomer, unassigned) [compound 734]", "EC50": 23},
      {"molecule": "COc1ccc(-c2ccc(N3CCOCC3)nc2)cc1C(=O)N[C@H]1[C@@H](C(=O)Nc2ccc(F)c(C(F)(F)F)c2)[C@H]2CC[C@@H]1C2=C(C)C", "note": "[compound 81]", "EC50": 39},
      {"molecule": "CC=C1C2CCC1[C@H](C(=O)Nc1ccc(F)c(C(F)(F)F)c1)[C@@H]2NC(=O)c1cc(F)c(F)cc1OC", "note": "(stereo partly shown) [compound 50]", "EC50": 150},
      {"molecule": "COc1ccc(C2=NO[C@H]3C[C@H](CO)C[C@@H]23)cc1C(=O)N[C@H]1[C@@H](C(=O)N[C@H](C)C2(C)CC2)[C@H]2CC[C@@H]1/C2=C\\C1CC(F)(F)C1", "note": "[compound 823]", "EC50": 2.6},
      {"molecule": "COc1ccc(C2=NOC3COCC23)cc1C(=O)N[C@H]1[C@@H](C(=O)NCC2CC2)[C@H]2CC[C@@H]1/C2=C\\C1CC1", "note": "(stereo partly shown) [compound 684]", "EC50": 642}
    ]}
  ]
}
